These results are taken from patent US9693992B2 (MannKind Corporation, priority 2010, dated 2017).

Chain of IRE-1α (O75460 19-977): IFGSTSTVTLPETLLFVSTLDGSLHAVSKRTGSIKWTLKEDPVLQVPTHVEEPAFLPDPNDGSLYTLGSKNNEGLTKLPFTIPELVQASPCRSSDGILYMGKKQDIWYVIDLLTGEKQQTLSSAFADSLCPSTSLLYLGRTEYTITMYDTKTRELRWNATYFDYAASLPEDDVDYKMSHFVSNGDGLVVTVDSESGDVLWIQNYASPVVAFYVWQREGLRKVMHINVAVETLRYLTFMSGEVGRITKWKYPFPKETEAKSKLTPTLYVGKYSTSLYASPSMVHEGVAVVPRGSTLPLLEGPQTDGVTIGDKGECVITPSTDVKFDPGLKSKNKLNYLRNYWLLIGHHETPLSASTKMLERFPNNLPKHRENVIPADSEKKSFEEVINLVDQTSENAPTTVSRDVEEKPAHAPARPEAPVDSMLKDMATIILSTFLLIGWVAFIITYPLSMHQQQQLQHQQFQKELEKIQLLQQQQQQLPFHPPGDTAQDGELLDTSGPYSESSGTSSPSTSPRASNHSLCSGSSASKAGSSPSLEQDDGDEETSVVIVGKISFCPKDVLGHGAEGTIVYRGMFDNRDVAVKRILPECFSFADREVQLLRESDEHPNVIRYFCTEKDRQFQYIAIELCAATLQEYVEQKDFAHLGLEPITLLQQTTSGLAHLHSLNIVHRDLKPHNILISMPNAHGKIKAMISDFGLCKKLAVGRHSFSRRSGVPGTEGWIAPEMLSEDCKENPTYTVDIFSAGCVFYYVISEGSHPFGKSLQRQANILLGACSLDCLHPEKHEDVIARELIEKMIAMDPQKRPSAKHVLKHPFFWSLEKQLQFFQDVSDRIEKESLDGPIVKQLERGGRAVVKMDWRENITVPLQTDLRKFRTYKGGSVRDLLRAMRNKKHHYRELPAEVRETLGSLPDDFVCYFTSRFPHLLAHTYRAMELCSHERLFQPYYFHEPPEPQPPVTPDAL

This test deals with IRE-1α (Homo sapiens (Human), UniProt O75460). As to the kind of experiment: Cellular EC50: endogenous XBP-1 splicing in myeloma cells (MM.1s, DTT stress, RT-PCR). The test is classed as cell-based. The note with it: average cellular EC50, XBP-1 splicing in myeloma cells. The procedure:
Human myeloma MM.1s cells are incubated with a compound for 1.25 hours before stressing the cells with 2 mM dithiothreitol (DTT). After an additional 45 minutes (2 hours total) with compound and DTT, the cells are harvested with TRIZOL® (a mono-phasic solution of phenol and guanidine isothiocyanate), and total RNA is prepared as directed by the manufacturer (Invitrogen). Human XBP-1 is amplified by RT-PCR with the following primers, which flank the 26 base unconventional intron excised by IRE-1α:
RT-PCR of unstressed (U) cells then generates the upper band. When cells are stressed (S) with the endoplasmic reticulum (ER) stressing agent DTT, IRE-1α is activated due to accumulating unfolded protein and the resulting RT-PCR product is 26 base pairs shorter.
Compounds which pass specificity assays are assayed for cellular EC50 using endogenous XBP-1 splicing in myeloma cells. XBP-1 is regulated through the excision of a 26 nucleotide intron from the XBP-1 mRNA by the highly specific endoribonuclease activity of IRE-1α. […] This splicing event is used to measure IRE-1α activity on XBP-1 mRNA in cells and tissues.
Briefly, compounds are incubated in the presence or absence of an ER stress agent (e.g., DTT), and the ratio of XBP-1u (unspliced) to XBP-1s (spliced) is quantified by RT-PCR. The ED50 is determined as the 50% XBP-1s to total XPB-1 levels.
Take `COc1cc2c(CN3CCOCC3)c(C)c(=O)oc2c(C=O)c1O` [Example 132]: the EC50 was under 10 µM.
`COc1cc2c(CN(C)C)c(C)c(=O)oc2c(C=O)c1O` [Example 133] had an EC50 of under 10 µM.
Then `COc1cc(O)c(C=O)c2oc(=O)c(C)c(CN3CCOCC3)c12` [Example 134], with under 10 µM; and `COc1cc(O)c(C=O)c2oc(=O)c(C)c(CN(C)C)c12` [Example 135], with under 10 µM; and `COCc1cc(=O)oc2c(C=O)c(O)c(OC)cc12` [Example 136], with under 10 µM.
`COCc1c(C)c(=O)oc2c(C=O)c(O)ccc12` [Example 137] displayed a 50% effective concentration (EC50) of under 10 µM.
The result for `COCCNC(=O)CCc1c(COC)c2cc(OC)c(O)c(C=O)c2oc1=O` [Example 138] reads over 10 µM; that for `COCc1c(CCC(=O)N2CCOCC2)c(=O)oc2c(C=O)c(O)c(OC)cc12` [Example 139], under 10 µM; that for `COCc1c(CCC(=O)NCCN2CCOCC2)c(=O)oc2c(C=O)c(O)c(OC)cc12` [Example 140], over 10 µM.
`COc1cc2c(C)c(-c3ccc(C(=O)N4CCN(C)CC4)s3)c(=O)oc2c(C=O)c1O` [Example 141] came in with an EC50 of under 10 µM.
Then `COc1cc2c(C)c(-c3ccc(C(=O)N4CCOCC4)s3)c(=O)oc2c(C=O)c1O` [Example 142], with under 10 µM; and `COc1cc2c(C)c(-c3ccc(C(=O)NCCN4CCOCC4)s3)c(=O)oc2c(C=O)c1O` [Example 143], with under 10 µM; and `CCOC(=O)CCc1c(C)c2cc(N(C)C(C)=O)c(O)c(C=O)c2oc1=O` [Example 144], with over 10 µM.
Then `COCCOCCc1c(C)c2c(OC)cc(O)c(C=O)c2oc1=O` [Example 145], with under 10 µM.
Then `COc1cc2c(C(C)C)cc(=O)oc2c(C=O)c1O` [Example 146], with under 10 µM; and `COc1cc2c(C)c(CCC(=O)NCCO)c(=O)oc2c(C=O)c1O` [Example 147], with over 10 µM.
`COc1cc2c(C)c(CC(=O)NCCO)c(=O)oc2c(C=O)c1O` [Example 148]: the EC50 is over 10 µM.
Then `COCOCCNC(=O)Cc1c(C)c2cc(OC)c(O)c(C=O)c2oc1=O` [Example 149], with under 10 µM; and `COCCNC(=O)c1ccc(-c2c(C)c3cc(Cl)c(O)c(C=O)c3oc2=O)cc1` [Example 150], with over 10 µM; and `Cc1c(-c2ccc(C(=O)NCCN3CCOCC3)cc2)c(=O)oc2c(C=O)c(O)c(Cl)cc12` [Example 151], with over 10 µM.
Compound `COCCNC(=O)CCc1c(C)c2c(OCCOC)cc(O)c(C=O)c2oc1=O` [Example 152] displayed an EC50 of under 10 µM.
Then `COCCOc1cc(O)c(C=O)c2oc(=O)c(CCC(=O)N3CCOCC3)c(C)c12` [Example 153], with under 10 µM; and `COCCOc1cc(O)c(C=O)c2oc(=O)c(CCC(=O)N3CCN(C)CC3)c(C)c12` [Example 154], with under 10 µM; and `CCNC(=O)CCc1c(C)c2c(OCCOC)cc(O)c(C=O)c2oc1=O` [Example 155], with under 10 µM.
The result for `COCCOc1cc(O)c(C=O)c2oc(=O)c(CCC(=O)NCCN3CCOCC3)c(C)c12` [Example 156] reads over 10 µM; that for `COCCOc1cc(O)c(C=O)c2oc(=O)c(CCC(=O)NCCN(C)C)c(C)c12` [Example 157], over 10 µM; that for `CCOC(=O)Cc1c(C)c2c(OCCOC)cc(O)c(C=O)c2oc1=O` [Example 158], under 10 µM.
In turn, `COCCNC(=O)Cc1c(C)c2c(OCCOC)cc(O)c(C=O)c2oc1=O` [Example 159] registered an EC50 of under 10 µM.
As to `COCCOc1cc(O)c(C=O)c2oc(=O)c(CC(=O)N3CCOCC3)c(C)c12` [Example 160], the EC50 is under 10 µM.
Then `COCCOc1cc(O)c(C=O)c2oc(=O)c(CC(=O)N3CCN(C)CC3)c(C)c12` [Example 161], with under 10 µM; and `CCNC(=O)Cc1c(C)c2c(OCCOC)cc(O)c(C=O)c2oc1=O` [Example 162], with under 10 µM.
Turning to `COCCOc1cc(O)c(C=O)c2oc(=O)c(CC(=O)NCCN3CCOCC3)c(C)c12` [Example 163], the concentration for a half-maximal effect (EC50) was under 10 µM.
